Patent US7175981B2, “Method of diagnosing stage or aggressiveness of breast and prostate cancer based on levels of fatty acid binding proteins” (The United States of America as represented by the …, priority 1998, dated 2007)
“Also recorded” adds a separate entry of the source. Where two headings read alike, the source gives them in different places.

What was measured:
LNCAP prostate cells = experiment: Growth of prostate cancer cells (Cytofluor); type: cell-based, human; conditions: prostate (and breast) cancer cells
A-FABP [1] = experiment: RT-PCR of A-FABP expression in LNCAP cells grown with drug; type: cell-based, human; conditions: 1 uM, 48 hr, listed as HPA-Na
Description: (§1) FIG. 18 is a graph showing LNCAP cells grown in the presence of 1 uM HPA-Na for 48 hr. At that time, cells were harvested, RNA prepared by the method of TRIZOL, and levels of various FABPs were measured by RT-PCR.
(§2) For RT-PCR, equal amounts of RNA were used for the reverse transcriptase reaction to make cDNA. The cDNA was then used for the PCR reaction using specific primers for the different fatty acid binding proteins. Also, PCR was performed for genes such as Actin whose level stays generally the same in all the samples. The PCR products were resolved on agarose gel and the picture under UV was saved in the computer as a TIFF file. Using the NIH Image Program 1.6–1, gel optical units were digitized and obtained for each band observed. The values of the FABP PCR fragments were therefore normalized to the Actin values for each sample. In the figures, the data is represented in Optical Density Units versus the FABP and cell type from Breast and Prostate tissues.
(§3) The RNA was isolated using the Trizol method and RT-PCR analysis of the proteins was performed by using primers specific for each FABP. […] The method of quantitation of PCR product was as follows: for internal quantitation control actin primers was used, all the gels were scanned in a gel scanner and digitized using the NIH-Image program for quantitation. […]

A-FABP [2] = experiment: RT-PCR of A-FABP expression in MCF-7 cells grown with drug; type: cell-based, human; conditions: 1 uM, 48 hr
Description: (§4) FIGS. 17a and 17b are graphs showing MCF-7 cells grown in the presence of 1 uM HPA-Na for 48 hr and RNA isolated for FABP measurement.
as §2
as §3, with “FABP. Equal amount of RNA was used for RT-PCR and PCR master mix was used to avoid any handling errors.” for “FABP.”

brain-FABP = experiment: RT-PCR of brain-FABP expression in MCF-7 cells grown with drug; type: cell-based, human; conditions: 1 uM, 48 hr
Description: as §4, §2
as §3, with “FABP. Equal amount of RNA was used for RT-PCR and PCR master mix was used to avoid any handling errors.” for “FABP.”

E-FABP [3] = experiment: RT-PCR of E-FABP expression in LNCAP cells grown with drug; type: cell-based, human; conditions: 1 uM
Description: as §1, §2, §3

E-FABP [4] = experiment: RT-PCR of E-FABP expression in MCF-7 cells grown with drug; type: cell-based, human; conditions: 1 uM, 48 hr
Description: as §4, §2
as §3, with “FABP. Equal amount of RNA was used for RT-PCR and PCR master mix was used to avoid any handling errors.” for “FABP.”

[5] = system: wild type MCF-7 human breast cancer cells; experiment: MCF-7 proliferation assay, wild type cells (cytofluor); type: cell-based; conditions: WT MCF-7 breast cancer cells
Description: (§5) Tables 1 and 2 show the concentrations required for IC50 inhibition in cultures of wild type and multi-drug resistant MCF-7 human breast cancer cells, respectively. These tables show polyoxotungstates used on MCF-7 proliferation assay.

[6] = system: multi-drug resistant MCF-7 ADR human breast cancer cells; experiment: MCF-7 proliferation assay, multi-drug resistant cells (cytofluor); type: cell-based; conditions: ADR MCF-7 breast cancer cells
Description: as §5

[7] = Toxicity in mice (body weight, necropsy); type: in vivo; conditions: subcutaneously, weekly for 10 weeks
Description: We have identified a class of heteropolyanions that have anticancer activity. This class consists of metal ion derivatives of polyoxotungstate, hereinafter referred to as HPA. These heteropolyanions (HPA) are synthesized by methods outlined in Heteropoly and Isopoly Oxometalates, Michael Thor Pope, Springer Verlag, Berlin, Germany 1983. They are water soluble and stable at room temperature and are effective at very low concentrations (1 μM) in cell cultures. […] Oral and intramuscular administration were also tested. Drugs were dissolved in aqueous solutions for administration. Preferred HPA drugs are HPA-Na and HPA-Sm.

I-FABP = experiment: RT-PCR of I-FABP expression in LNCAP cells grown with drug; type: cell-based, human; conditions: in the presence of drug, listed as HPA-Na
Description: as §1, §2, §3

[8] = experiment 1, read-out: IC50 (Exp. 1)
[9] = experiment 2, read-out: IC50 (Exp. #2)

Substance | effect on proliferation of cancer cells (LNCAP prostate cells) | change in level of A-FABP (A-FABP [1]) | change in level of A-FABP (A-FABP [2]) | change in level of brain-FABP (brain-FABP) | change in level of E-FABP (E-FABP [3]) | change in level of E-FABP (E-FABP [4]) | IC50 [5, 8] [µM] | IC50 [5, 9] [µM] | IC50 [6, 9] [µM] | toxicity in mice (weights, necropsy) [7] | change in level of I-FABP (I-FABP) | IC50 [6, 8] [µM]
K12.5Na1.5[NaP5W30O110] · nH2O | blocked | increased the levels of A-FABP in LNCAP to a level similar to the normal values; also recorded: increasing A-FABP; also recorded: markedly elevated | dramatically increased | decreased significantly | altered in a similar manner | dramatically increased | 3.8 | 3.5 | 2.1 | no indications of toxicity was observed | decreasing I-FABP; also recorded: decrease | –
K12[BiP5W30O110] · nH2O | – | – | – | – | – | – | – | 5 | 2.5 | – | – | 3
K12[CeP5W30O110] · nH2O | – | – | – | – | – | – | 4.3 | 5 | 3 | – | – | 3.8
K12[DyP5W30O110] · nH2O | – | – | – | – | – | – | 4.3 | 5 | 2.3 | – | – | 3.8
K12[ErP5W30O110] · nH2O | – | – | – | – | – | – | 4.3 | 6 | 1 | – | – | 4
K12[EuP5W30O110] · nH2O | – | – | – | – | – | – | – | 4.5 | 3.8 | – | – | 0.25
K12[GdP5W30O110] · nH2O | – | – | – | – | – | – | 2 | 8 | 4.6 | – | – | 4.3
K12[HoP5W30O110] · nH2O | – | – | – | – | – | – | 3 | 4.5 | 4 | – | – | 0.25
K12[LuP5W30O110] · nH2O | – | – | – | – | – | – | 1 | 5 | 5.5 | – | – | 4.5
K12[SmP5W30O110] · nH2O | – | – | – | – | – | – | 0.5 | 2.5 | 4.1 | – | – | 3.8
K12[TbP5W30O110] · nH2O | – | – | – | – | – | – | 1 | 8 | 4.9 | – | – | 3.5
K12[TmP5W30O110] · nH2O | – | – | – | – | – | – | 0.25 | 10 | 6 | – | – | 4
K12[UP5W30O110] · nH2O | – | – | – | – | – | – | 1 | 10 | 4.8 | – | – | 5.8
K12[YbP5W30O110] · nH2O | – | – | – | – | – | – | 3.8 | 3.7 | 6.3 | – | – | 5
K13[CaP5W30O110] · nH2O | – | – | – | – | – | – | 4.5 | 5 | 6.8 | – | – | 3.8
